The target in the experiment is T1, human topoisomerase I (TOP1) (Homo sapiens, UniProt P11387).
T1 sequence (P11387 2-765): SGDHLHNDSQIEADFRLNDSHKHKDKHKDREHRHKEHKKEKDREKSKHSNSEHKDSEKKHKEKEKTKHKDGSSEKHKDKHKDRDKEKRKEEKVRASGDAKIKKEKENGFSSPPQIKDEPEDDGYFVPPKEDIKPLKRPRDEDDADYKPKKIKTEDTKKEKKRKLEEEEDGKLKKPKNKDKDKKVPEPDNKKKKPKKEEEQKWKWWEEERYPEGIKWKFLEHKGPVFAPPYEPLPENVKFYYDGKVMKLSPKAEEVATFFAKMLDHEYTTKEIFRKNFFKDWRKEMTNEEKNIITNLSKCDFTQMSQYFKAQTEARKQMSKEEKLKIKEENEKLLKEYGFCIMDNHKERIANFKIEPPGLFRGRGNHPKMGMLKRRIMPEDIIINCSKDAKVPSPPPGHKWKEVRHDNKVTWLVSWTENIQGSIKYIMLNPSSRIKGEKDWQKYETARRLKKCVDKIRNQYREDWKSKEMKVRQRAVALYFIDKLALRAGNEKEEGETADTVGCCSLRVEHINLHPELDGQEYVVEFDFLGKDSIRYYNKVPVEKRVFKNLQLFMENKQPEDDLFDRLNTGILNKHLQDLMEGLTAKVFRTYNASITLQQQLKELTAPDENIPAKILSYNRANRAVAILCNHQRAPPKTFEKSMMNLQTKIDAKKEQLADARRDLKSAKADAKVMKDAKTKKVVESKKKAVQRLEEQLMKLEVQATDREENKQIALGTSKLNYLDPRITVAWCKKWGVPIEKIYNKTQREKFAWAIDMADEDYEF
The experiment can be described thus: supercoiled plasmid DNA relaxation, agarose gel. The class given is biochemical.

This passage reports IC50 results from publication doi:10.1101/2021.11.16.468530v1 (biorxiv, 2021).

On to `O=C(Nc1ccc(Sc2ccc(N=Nc3c(O)c(S(=O)(=O)O)cc4cc(S(=O)(=O)O)ccc34)cc2)cc1)c1ccc(N=Nc2c(O)c(S(=O)(=O)O)cc3cc(S(=O)(=O)O)ccc23)cc1` [NSC65860], for which half-maximal inhibition (IC50) required 0.89 µM.
`O=c1c(O)c(-c2cc(O)c(O)c(O)c2)oc2cc(O)cc(O)c12` [myricetin]: the IC50 is around 10 µM.

In general, IC50 refers to the concentration that inhibits the measured activity by half. A low value points to greater potency.
